In assay [1] the test system is breast cancer cell line MX-1. Description: MX-1 cell line proliferation assay, Method A. It counts as cell-based. Conditions: Homo sapiens, MX1; MX-1 cells, 96-well, 72 hours, Cell Titer Glo; read-out: Cellular proliferation: EC50 Method A. A digest of the protocol:
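MX-1 breast cancer cells (5000/well) were attached overnight in RPMI 1640 with 10% FBS, then exposed for 3 days to compound at 0.0001–3 μM final. Cell Titer Glo luminescence was normalized to DMSO controls, and EC50s were obtained by sigmoidal fitting.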
(Cellular ATP, detected with luciferase, serves as a proxy for viable cell number.)

In assay [2] the test system is breast cancer cell line MX-1. The assay can be described thus: MX-1 cell line proliferation assay, Method B. It counts as cell-based. The settings on record: Homo sapiens, MX1; MX-1 cells, 384-well, 72 hours, Cell Titer Glo; read-out: Cellular proliferation: EC50 Method B. The method, then: The impact of compounds of the Examples on cancer cell proliferation was determined using the breast cancer cell line MX-1 (ATCC) in a 3-day proliferation assay and the data are reported in Table 1.
MX-1 cells were maintained in RPMI 1640 medium (Sigma) supplemented with 10% FBS at 37° C. and an atmosphere of 5% CO2. For compound testing, MX-1 cells were plated in 384-well white with clear, flat bottom plates at a density of 750 cells/well in 25 μL of culture media and incubated at 370 overnight to allow cell adhesion and spreading. Ten point compound dilution series were prepared in DMSO via a 3-fold serial dilution from either 10 μM or 1 μM stock and added directly to the appropriate wells of the MX-1 cell plate by an ECHO liquid handler (Labcyte). The final compound concentrations in the wells were 10, 3.25, 1, 0.25, 0.124, 0.040, 0.0124, 0.0031, 0.0015 and 0.0005 μM or 1, 0.33, 0.1, 0.025, 0.0124, 0.004, 0.0012, 0.0003, 0.00015, 0.00005 μM, depending on the concentration of the compound stock solution.
Luminescence readings from the Cell Titer Glo assay were normalized to the DMSO treated cells and analyzed using Accelrys Assay Explorer 3.3 software with sigmoidal curve fitting to obtain EC50s. The minimum significant ratio (MSR) was determined to evaluate assay reproducibility (Eastwood et al., (2006) J Biomol Screen, 11: 253-261). The overall MSR was determined to be 3.3 and a moving MSR (last six run MSR overtime) has averaged 2.1.

For 18 compounds, EC50 results are on record in patent US10131657B2, “Bromodomain inhibitors” (AbbVie Inc., priority 2013, dated 2018).

A value given as a limit tells only on which side of the number the result lay.

Take `Cn1cc(-c2cc(S(C)(=O)=O)ccc2Oc2ccc(F)cc2F)c2cc(CN3CCN(c4nccs4)CC3)[nH]c2c1=O` [Example 114, 4-[2-(2,4-difluorophenoxy)-5-(methylsulfonyl)phenyl]-6-methyl-2-{[4-(1,3-thiazol-2-yl)piperazin-1-yl]methyl}-1,6-dihydro-7H-pyrrolo[2,3-c]pyridin-7-one]: the EC50 in assay [1] turned out to be 762 nM.

As for `Cn1cc(-c2cc(S(C)(=O)=O)ccc2Oc2ccc(F)cc2F)c2cc(CN3CCN(C4CC4)CC3)[nH]c2c1=O` [Example 115, 2-[(4-cyclopropylpiperazin-1-yl)methyl]-4-[2-(2,4-difluorophenoxy)-5-(methylsulfonyl)phenyl]-6-methyl-1,6-dihydro-7H-pyrrolo[2,3-c]pyridin-7-one], in assay [1], the EC50 came to 411 nM.

Take `Cn1cc(-c2cc(S(C)(=O)=O)ccc2Oc2ccc(F)cc2F)c2cc(CN3CCN(C4CCOCC4)CC3)[nH]c2c1=O` [Example 116, 4-[2-(2,4-difluorophenoxy)-5-(methylsulfonyl)phenyl]-6-methyl-2-{[4-(tetrahydro-2H-pyran-4-yl)piperazin-1-yl]methyl}-1,6-dihydro-7H-pyrrolo[2,3-c]pyridin-7-one]: the EC50 in assay [1] was determined as 183 nM.

For the compound `CCS(=O)(=O)c1ccc(Oc2ccc(F)cc2F)c(-c2cn(C)c(=O)c3[nH]c(-c4ccnn4-c4ccccc4)cc23)c1` [Example 117, 4-[2-(2,4-difluorophenoxy)-5-(ethylsulfonyl)phenyl]-6-methyl-2-(1-phenyl-1H-pyrazol-5-yl)-1,6-dihydro-7H-pyrrolo[2,3-c]pyridin-7-one], the EC50 in assay [1] is 249 nM.

`CCNC(=O)c1cc2c(-c3cc(S(=O)(=O)CC)ccc3Oc3c(C)cccc3NCC3CC3)cn(C)c(=O)c2[nH]1` [Example 119, 4-[2-{2-[(cyclopropylmethyl)amino]-6-methylphenoxy}-5-(ethylsulfonyl)phenyl]-N-ethyl-6-methyl-7-oxo-6,7-dihydro-1H-pyrrolo[2,3-c]pyridine-2-carboxamide]: the EC50 in assay [1] is 1510 nM.

With `CN1CCC(N2CCN(Cc3cc4c(-c5cc(S(C)(=O)=O)ccc5Oc5ccc(F)cc5F)cn(C)c(=O)c4[nH]3)CC2)CC1` [Example 125, 4-[2-(2,4-difluorophenoxy)-5-(methylsulfonyl)phenyl]-6-methyl-2-{[4-(1-methylpiperidin-4-yl)piperazin-1-yl]methyl}-1,6-dihydro-7H-pyrrolo[2,3-c]pyridin-7-one], the EC50 in assay [1] amounted to 606 nM.

Consider `Cn1cc(-c2cc(S(C)(=O)=O)ccc2Oc2ccc(F)cc2F)c2cc(CN3CCOCC3c3ccco3)[nH]c2c1=O` (stereo not drawn) [Example 127, 4-[2-(2,4-difluorophenoxy)-5-(methylsulfonyl)phenyl]-2-{[3-(furan-2-yl)morpholin-4-yl]methyl}-6-methyl-1,6-dihydro-7H-pyrrolo[2,3-c]pyridin-7-one], for which the EC50 in assay [1] came out at 128 nM.

Consider `Cc1cc(C)n(C2CN(Cc3cc4c(-c5cc(S(C)(=O)=O)ccc5Oc5ccc(F)cc5F)cn(C)c(=O)c4[nH]3)C2)n1` [Example 129, 4-[2-(2,4-difluorophenoxy)-5-(methylsulfonyl)phenyl]-2-{[3-(3,5-dimethyl-1H-pyrazol-1-yl)azetidin-1-yl]methyl}-6-methyl-1,6-dihydro-7H-pyrrolo[2,3-c]pyridin-7-one], for which, in assay [1], the EC50 is 249 nM.

For `Cn1cc(-c2cc(S(C)(=O)=O)ccc2Oc2ccc(F)cc2F)c2cc(CN3CCC(N4CCOCC4)CC3)[nH]c2c1=O` [Example 130, 4-[2-(2,4-difluorophenoxy)-5-(methylsulfonyl)phenyl]-6-methyl-2-{[4-(morpholin-4-yl)piperidin-1-yl]methyl}-1,6-dihydro-7H-pyrrolo[2,3-c]pyridin-7-one], the EC50 in assay [1] is 337 nM.

With `Cc1noc(C2CCCN2Cc2cc3c(-c4cc(S(C)(=O)=O)ccc4Oc4ccc(F)cc4F)cn(C)c(=O)c3[nH]2)n1` (stereo not drawn) [Example 131, 4-[2-(2,4-difluorophenoxy)-5-(methylsulfonyl)phenyl]-6-methyl-2-{[2-(3-methyl-1,2,4-oxadiazol-5-yl)pyrrolidin-1-yl]methyl}-1,6-dihydro-7H-pyrrolo[2,3-c]pyridin-7-one], in assay [2], the EC50 stood at 827 nM.

As to `Cn1cc(-c2cc(S(C)(=O)=O)ccc2Oc2ccc(F)cc2F)c2cc(CN3CCN(c4ccccn4)CC3)[nH]c2c1=O` [Example 132, 4-[2-(2,4-difluorophenoxy)-5-(methylsulfonyl)phenyl]-6-methyl-2-{[4-(pyridin-2-yl)piperazin-1-yl]methyl}-1,6-dihydro-7H-pyrrolo[2,3-c]pyridin-7-one], in assay [2], the EC50 was found to be 653 nM.

For the compound `CCNC(=O)/C=C/c1cc2c(-c3cc(S(=O)(=O)CC)ccc3Oc3c(C)cccc3C)cn(C)c(=O)c2[nH]1` [Example 134, (2E)-3-{4-[2-(2,6-dimethylphenoxy)-5-(ethylsulfonyl)phenyl]-6-methyl-7-oxo-6,7-dihydro-1H-pyrrolo[2,3-c]pyridin-2-yl}-N-ethylprop-2-enamide], the EC50 in assay [2] came to 238 nM.

In the case of `Cc1cccc(C)c1Oc1ccc(S(C)(=O)=O)cc1-c1cn(C)c(=O)c2[nH]c(-c3nc(C4CCCCC4)no3)cc12` [Example 136, 2-(3-cyclohexyl-1,2,4-oxadiazol-5-yl)-4-[2-(2,6-dimethylphenoxy)-5-(methylsulfonyl)phenyl]-6-methyl-1,6-dihydro-7H-pyrrolo[2,3-c]pyridin-7-one], the EC50 in assay [2] is greater than 1000 nM.

Regarding `Cc1cccc(C)c1Oc1ccc(S(C)(=O)=O)cc1-c1cn(C)c(=O)c2[nH]c(-c3nc(-c4ccccc4)no3)cc12` [Example 137, 4-[2-(2,6-dimethylphenoxy)-5-(methylsulfonyl)phenyl]-6-methyl-2-(3-phenyl-1,2,4-oxadiazol-5-yl)-1,6-dihydro-7H-pyrrolo[2,3-c]pyridin-7-one], the EC50 in assay [2] was greater than 1000 nM.

Consider `Cc1cccc(C)c1Oc1ccc(S(C)(=O)=O)cc1-c1cn(C)c(=O)c2[nH]c(-c3nc(-c4cccnc4)no3)cc12` [Example 138, 4-[2-(2,6-dimethylphenoxy)-5-(methylsulfonyl)phenyl]-6-methyl-2-[3-(pyridin-3-yl)-1,2,4-oxadiazol-5-yl]-1,6-dihydro-7H-pyrrolo[2,3-c]pyridin-7-one], for which, in assay [2], the EC50 stood at 465 nM.

On to `Cc1cccc(C)c1Oc1ccc(S(C)(=O)=O)cc1-c1cn(C)c(=O)c2[nH]c(-c3nc(-c4ccccn4)no3)cc12` [Example 139, 4-[2-(2,6-dimethylphenoxy)-5-(methylsulfonyl)phenyl]-6-methyl-2-[3-(pyridin-2-yl)-1,2,4-oxadiazol-5-yl]-1,6-dihydro-7H-pyrrolo[2,3-c]pyridin-7-one], for which the EC50 in assay [2] amounted to 532 nM.

In the case of `Cc1cccc(C)c1Oc1ccc(S(C)(=O)=O)cc1-c1cn(C)c(=O)c2[nH]c(-c3nc(-c4cnccn4)no3)cc12` [Example 140, 4-[2-(2,6-dimethylphenoxy)-5-(methylsulfonyl)phenyl]-6-methyl-2-[3-(pyrazin-2-yl)-1,2,4-oxadiazol-5-yl]-1,6-dihydro-7H-pyrrolo[2,3-c]pyridin-7-one], the EC50 in assay [2] was 491 nM.

As to `CCS(=O)(=O)Nc1ccc(Oc2ccc(F)cc2F)c(-c2cn(C)c(=O)c3[nH]c(C#CCOC)cc23)c1` [Example 163, N-{4-(2,4-difluorophenoxy)-3-[2-(3-methoxyprop-1-yn-1-yl)-6-methyl-7-oxo-6,7-dihydro-1H-pyrrolo[2,3-c]pyridin-4-yl]phenyl}ethanesulfonamide], in assay [1], the EC50 was 47.7 nM.
